Assay results reported in patent US20210238177A1, “CRYSTALLINE FORMS OF 3-((1R,5S,9r)-9-ETHOXY-3-AZABICYCLO[3.3.1]NONAN-9-YL)-BENZAMIDE AND SALT FORMS THEREOF” (Alkermes, Inc., priority 2020, published 2021).

Experiment: Dynamic Vapor Sorption (DVS) with PXRD of the material after DVS
Type: physicochemical
Experimental: DVS analysis was conducted using a TA Instruments TGA Q5000 SA. DVS was run at 25 degrees C. The sample was pre-dried at 25 degrees C. and 0% relative humidity (% RH) until the dm/dt was 0.01% for up to 300 minutes. Adsorption and desorption isotherms were measured by ramping the humidity from 0% RH to 90% RH to 0% RH at 10% RH step intervals with a stability criterion of dm/dt=0.01% or 300 minutes unless otherwise noted. Data analysis was performed using Universal Analysis 2000 Version 4.5 A.

CCOC1(c2cccc(C(N)=O)c2)C2CCCC1CNC2.Cl [hydrochloride Form B, 3-((1R,5S,9r-9-ethoxy-3-azabicyclo-[3.3.1]nonan-9-yl)-benzamide hydrochloride]
relative stability of HCl salt solid forms (conclusion based on the DVS experiment): most stable HCl salt solid form

CCOC1(c2cccc(C(N)=O)c2)C2CCCC1CNC2.Cl [hydrochloride Form D, 3-((1R,5S,9r-9-ethoxy-3-azabicyclo-[3.3.1]nonan-9-yl)-benzamide hydrochloride]
water (DVS weight gain) (25 degrees C, first cycle, up to 50% RH): approximately 0.5%
solid form after DVS (PXRD pattern) (after two cycle DVS, 0% RH to 90% RH to 0% RH, 25 degrees C): consistent with hydrochloride Form B
